# Values quoted from earlier work in US20210386733A1, “LYSINE-SPECIFIC HISTONE DEMETHYLASE INHIBITORS FOR THE TREATMENT OF MYELOPROLIFERATIVE NEOPLASMS” (Imago Biosciences, Inc., priority 2019, published 2021).
# Test system: primary myelofibrosis patients
# Conditions: 50 to 100 mg/day in combination with prednisone; cited from earlier work
compound,measurement,value
O=C1CCC(N2C(=O)c3ccccc3C2=O)C(=O)N1 (centres unmarked) [Thalidomide],patients with improved anemia and thrombocytopenia,approximately 60%
same,patients with reduced spleen size,approximately 20%
